≈ marks a conversion by molar mass, not a printed value. Read-outs that look alike come from different tables or passages of the source.
Experiments:
AsPC-1 cells = assay: 3D cell proliferation assay (CellTiter Glo-3D), AsPC-1; type: cell-based, human
In short: (§1)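 IC50 values come from four-parameter fits of inhibition rate against log compound concentration, using CellTiter-Glo luminescence read after 5 days' exposure. AsPC-1 and NCI-H441 were plated at 800 cells per well in low-serum (2% FBS) medium. Compound was dosed the day after seeding, with incubation at 37 °C, 5% CO2.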

[1] = Solubility experiment (HPLC, external standard); type: physicochemical; conditions: for solubility at 24 h: pH 7.4, pH 7.4 medium
Experimental: This experiment was intended to determine the solubility of the compounds in media at different pH values. The materials used in the experiment included: a pH 1.2 medium, a pH 4.5 medium, a pH 7.4 medium, and a diluent (acetonitrile/water = 50/50). 1. The preparation methods for media are as follows:
One centrifuge tube (containing about 2 mg of the test sample) was taken, 1 mL of DMSO was added to completely dissolve the test sample, and the mixture was marked as stock-1. 0.2 mL of stock-1 was transferred into a 10 mL volumetric flask, and then the 50:50 (acetonitrile/water) solution was added to bring the volume to the mark, so as to give a control solution.
Additionally, centrifuge tubes each containing about 1 mg of the test sample were taken, 1 mL of the corresponding medium solution was then added, and the tubes were shaken on a 37 °C water bath shaker for 24 h. After centrifugation for 3 times (centrifugation time: 10 min, rotation speed: 12000 rpm), 0.2 mL of the supernatants were taken, 0.8 mL of the diluent (acetonitrile/water = 50/50) was added to each tube, and the mixtures were vortexed and mixed well to give solubility samples.
The solubility samples described above and the control solution were sequentially analyzed by high performance liquid chromatography. The chromatographic conditions are as follows:
The actual concentration of the compound in each solubility sample was calculated according to an external standard method. Concentration (μg/mL) = (ASample × CControl × DSample)/(AControl)∗1000; [formula] Asample: the peak area of the target peak in the sample solution; Ccontrol: the concentration (mg/mL) of the control solution; Dsample: the dilution factor of the sample solution; Acontrol: the peak area of the target peak in the control solution.

KRAS G12V-cRAF = KRAS G12V-cRAF (Homo sapiens, UniProt P01116+P62937, G12V); assay: Assay for binding of KRAS to cRAF (HTRF, with Cyclophilin A), KRAS G12V
KRAS G12V-cRAF, sequence (P01116 1-188 isoform P01116-2 G12V): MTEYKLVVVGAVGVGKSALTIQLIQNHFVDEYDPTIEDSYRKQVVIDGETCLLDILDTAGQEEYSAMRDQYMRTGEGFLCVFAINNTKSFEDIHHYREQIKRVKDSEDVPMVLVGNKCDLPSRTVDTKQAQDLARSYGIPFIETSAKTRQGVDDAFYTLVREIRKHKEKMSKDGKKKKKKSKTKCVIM
KRAS G12V-cRAF, sequence (P62937 whole entry): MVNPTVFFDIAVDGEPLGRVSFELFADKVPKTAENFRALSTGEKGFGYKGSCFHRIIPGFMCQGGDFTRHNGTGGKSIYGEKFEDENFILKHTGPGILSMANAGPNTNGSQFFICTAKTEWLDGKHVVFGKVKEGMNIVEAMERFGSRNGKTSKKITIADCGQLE
Experimental: (§3) The plate was centrifuged at 1000 rpm for 1 min and then incubated in the thermostatic incubator at 20 °C for 30 min. […] The plate was centrifuged at 1000 rpm for 1 min and then incubated in the thermostatic incubator at 20 °C for 60 min. […] The working solution was added to the aforementioned assay plate at 5 µL/well. The plate was centrifuged at 1000 rpm for 1 min and then incubated in the thermostatic incubator at 20 °C for 60 min.

NCI-H441 cells = assay: 3D cell proliferation assay (CellTiter Glo-3D), NCI-H441; type: cell-based, human; conditions: NCI-H441 cells (KRAS G12V), 2% FBS, 5 days, read-out: H441 AP IC50
In short: as §1

KRAS WT-cRAF = KRAS WT-cRAF (Homo sapiens, UniProt P01116+P62937); assay: Assay for binding of KRAS to cRAF (HTRF, with Cyclophilin A), KRAS WT
KRAS WT-cRAF, sequence (P01116 1-188 isoform P01116-2): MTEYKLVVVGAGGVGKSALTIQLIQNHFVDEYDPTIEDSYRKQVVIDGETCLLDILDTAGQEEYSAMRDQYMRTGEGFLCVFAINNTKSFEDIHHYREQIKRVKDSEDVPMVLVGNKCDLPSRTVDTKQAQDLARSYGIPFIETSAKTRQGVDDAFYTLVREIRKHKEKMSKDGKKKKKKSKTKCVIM
KRAS WT-cRAF, sequence (P62937 whole entry): as the sequence (P62937 whole entry) above
Experimental: as §3

H441 p-ERK = assay: Cell p-ERK assay (HTRF), NCI-H441 cells; type: cell-based, human; conditions: NCI-H441 cells (KRAS G12V), 3 h incubation
In short: (§2)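 Phospho-ERK (T202/Y204) was measured by HTRF in lysates after 3 h compound treatment at 37 °C. Cells had been plated the previous day at 20000 per well for NCI-H441 and 10000 per well for AsPC-1. Four-parameter dose-response fitting of % inhibition gave IC50 values.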

AsPC-1 p-ERK = assay: Cell p-ERK assay (HTRF), AsPC-1 cells; type: cell-based, human
In short: as §2

[2] = read-out: KRAS G12V-cRAF binding assay, GPPNP-KRAS G12V, IC50 values
[3] = read-out: KRAS WT-cRAF binding assay, GPPNP-KRAS WT, IC50 values
[4] = Homo sapiens, ASPC1, 120 h, AsPC-1 cells (KRAS G12D), 3D, 2% FBS, 5 days, read-out: AsPC-1 AP IC50
[5] = KRAS G12V-cRAF binding assay(nM), GPPNP-KRAS G12V, IC50 values
[6] = KRAS WT-cRAF binding assay(nM), GPPNP-KRAS WT, IC50 values
[7] = Homo sapiens, ASPC1, AsPC-1 cells (KRAS G12D), 3 h incubation, read-out: AsPC-1 p-ERK IC50

Q: What does the source list for `CCn1c(-c2cc(C#CCN3CCS(=O)(=O)CC3)cnc2[C@H](C)NC)c2c3cc(ccc31)-c1csc(n1)C[C@H](NC(=O)[C@H]1[C@H](C)[C@@H]1C)C(=O)N1CCC[C@H](N1)C(=O)OCC(C)(C)C2` (atropisomer, axis not shown; (Ra)) [Compound Z66, (1r,2R,3S)-N-((6^3S,4S,Z)-(Ra)-1^2-(5-(3-(1,1-dioxidothiomorpholino)prop-1-yn-1-yl)-2-((S)-1-(methylamino)ethyl)pyridin-3-yl)-1^1-ethyl-10,10-dimethyl-5,7-dioxo-6^1,6^2,6^3,6^4,6^5,6^6-hexahydro-1^1H-8-oxa-2(4,2)-thiazola-1(5,3)-indola-6(1,3)-pyridazinacycloundecaphane-4-yl)-2,3-dimethylcyclopropane-1-carboxamide]?
A: IC50 (AsPC-1 cells; Homo sapiens, ASPC1, 120 h, read-out: AsPC-1 AP IC50(nM)): 0.12 nM; Solubility at pH 7.4 (µg/mL) ([1]; ph 7.4 medium, pH 7.4, 1440 min): 66.54 µg/mL; IC50 (KRAS G12V-cRAF; [2]): 8.54 nM; IC50 (NCI-H441 cells; Homo sapiens, 120 h): 0.11 nM; IC50 (KRAS WT-cRAF; [3]): 19.5 nM; IC50 (H441 p-ERK; Homo sapiens): 0.32 nM; IC50 (AsPC-1 p-ERK; Homo sapiens, ASPC1, 3 h, read-out: AsPC-1 p-ERK IC50(nM)): 0.3 nM

Q: With `CCn1c(-c2cc(C#CCN3CCN(C(=O)CO)CC3)cnc2C(C)OC)c2c3cc(ccc31)-c1coc(n1)CC(NC(=O)C1C3COCC31)C(=O)N1CCCC(N1)C(=O)OCC(C)(C)C2` (atropisomer, axis not shown; (Ra)) [Compound Z44, (1R,5S,6r)-N-((6^3S,4S,Z)-(Ra)-1^2-(5-(3-(4-(2-hydroxyacetyl)piperazin-1-yl)prop-1-yn-1-yl)-2-((S)-1-methoxyethyl)pyridin-3-yl)-1^1-ethyl-10,10-dimethyl-5,7-dioxo-6^1,6^2,6^3,6^4,6^5,6^6-hexahydro-1^1H-8-oxa-2(4,2)-oxazola-1(5,3)-indola-6(1,3)-pyridazinacycloundecaphane-4-yl)-3-oxabicyclo[3.1.0]hexane-6-carboxamide] as the compound, how does the IC50 (AsPC-1 cells; [4]) read?
A: 1.21 nM

Q: What about the solubility at 24 h ([1]; pH 7.4 medium, 37 °C, 24 h) of the same compound?
A: 55.8 µg/mL (≈ 61.6 µM)

Q: And the IC50 (KRAS G12V-cRAF; [5])?
A: 11.8 nM

Q: And the IC50 (NCI-H441 cells; Homo sapiens, 120 h)?
A: 0.38 nM

Q: And the IC50 (KRAS WT-cRAF; [6])?
A: 25.2 nM

Q: What about the IC50 (H441 p-ERK; Homo sapiens) of the same compound?
A: 0.42 nM

Q: What about the IC50 (AsPC-1 p-ERK; [7]) of the same compound?
A: 1.73 nM

Q: Which IC50 (AsPC-1 cells; [4]) does the source give for `CCn1c(-c2cc(C#CCN3CCN(C(=O)CO)CC3)c[n+]([O-])c2C(C)OC)c2c3cc(ccc31)-c1csc(n1)CC(NC(=O)C1C(C)C1C)C(=O)N1CCCC(N1)C(=O)OCC(C)(C)C2` (atropisomer, axis not shown; (Ra)) [Compound Z48, (Ra)-3-((6^3S,4S,Z)-4-((1r,2R,3S)-2,3-dimethylcyclopropane-1-carboxamido)-1^1-ethyl-10,10-dimethyl-5,7-dioxo-6^1,6^2,6^3,6^4,6^5,6^6-hexahydro-1^1H-8-oxa-2(4,2)-thiazola-1(5,3)-indola-6(1,3)-pyridazinacycloundecaphane-1^2-yl)-5-(3-(4-(2-hydroxyacetyl)piperazin-1-yl)prop-1-yn-1-yl)-2-((S)-1-methoxyethyl)pyridine 1-oxide] here?
A: 5.06 nM

Q: What about the solubility at 24 h ([1]; pH 7.4 medium, 37 °C, 24 h) of the same compound?
A: 71.2 µg/mL (≈ 77.1 µM)

Q: What about the IC50 (KRAS G12V-cRAF; [5]) of the same compound?
A: 9.05 nM

Q: And the IC50 (NCI-H441 cells; Homo sapiens, 120 h)?
A: 1.99 nM

Q: What about the IC50 (KRAS WT-cRAF; [6]) of the same compound?
A: 31.3 nM

Q: And the IC50 (H441 p-ERK; Homo sapiens)?
A: 1.66 nM

Q: What about the IC50 (AsPC-1 p-ERK; [7]) of the same compound?
A: 4.7 nM

Q: For `CCn1c(-c2cc(C#CCN3CCN(C(=O)CO)CC3)cnc2[C@H](C)OC)c2c3cc(ccc31)-c1csc(n1)C[C@H](NC(=O)[C@H]1[C@@H]3COC[C@@H]31)C(=O)N1CCC[C@H](N1)C(=O)OCC(C)(C)C2` (atropisomer, axis not shown; (Ra)) [Compound Z34, (1R,5S,6r)-N-((6^3S,4S,Z)-1^1-ethyl-1^2-(5-(3-(4-(2-hydroxyacetyl)piperazin-1-yl)prop-1-yn-1-yl)-(Ra)-2-((S)-1-methoxyethyl)pyridin-3-yl)-10,10-dimethyl-5,7-dioxo-6^1,6^2,6^3,6^4,6^5,6^6-hexahydro-1^1H-8-oxa-2(4,2)-thiazola-1(5,3)-indola-6(1,3)-pyridazinacycloundecaphane-4-yl)-3-oxabicyclo[3.1.0]hexane-6-carboxamide], which IC50 (AsPC-1 cells; AsPC-1 cells (KRAS G12D), 3D, 2% FBS, 5 days, read-out: AsPC-1 AP IC50) is on record?
A: 0.77 nM

Q: What about the “Solubility at pH 7.4 (µg/mL)” value ([1]; pH 7.4 medium, 37 °C, 24 h) of the same compound?
A: 16.22 µg/mL

Q: And the IC50 (KRAS G12V-cRAF; [2])?
A: 17.1 nM

Q: And the IC50 (NCI-H441 cells)?
A: 0.47 nM

Q: And the IC50 (KRAS WT-cRAF; [3])?
A: 25.3 nM

Q: What about the IC50 (H441 p-ERK) of the same compound?
A: 0.27 nM

Q: What about the IC50 (AsPC-1 p-ERK; AsPC-1 cells (KRAS G12D), 3 h incubation, read-out: AsPC-1 p-ERK IC50) of the same compound?
A: 0.28 nM

Q: Which IC50 (AsPC-1 cells; [4]) does the source give for `CCn1c(-c2cc(C#CCN3CCN(C(=O)CO)CC3)cnc2C(C)OC)c2c3cc(ccc31)-c1csc(n1)CC(NC(=O)C1C(C)C1C)C(=O)N1CCCC(N1)C(=O)OCC(C)(C)C2` (atropisomer, axis not shown; (Ra)) [Compound Z6, (1r,2R,3S)-N-((6^3S,4S,Z)-1^1-ethyl-(Ra)-1^2-(5-(3-(4-(2-hydroxyacetyl)piperazin-1-yl)prop-1-yn-1-yl)-2-((S)-1-methoxyethyl)pyridin-3-yl)-10,10-dimethyl-5,7-dioxo-6^1,6^2,6^3,6^4,6^5,6^6-hexahydro-1^1H-8-oxa-2(4,2)-thiazola-1(5,3)-indola-6(1,3)-pyridazinacycloundecaphane-4-yl)-2,3-dimethylcyclopropane-1-carboxamide] here?
A: 0.31 nM

Q: And the solubility at 24 h ([1]; pH 7.4 medium, 37 °C, 24 h)?
A: 7.8 µg/mL (≈ 8.6 µM)

Q: And the IC50 (KRAS G12V-cRAF; [5])?
A: 10.7 nM

Q: And the IC50 (NCI-H441 cells; Homo sapiens, 120 h)?
A: 0.28 nM

Q: And the IC50 (KRAS WT-cRAF; [6])?
A: 19.2 nM

Q: What about the IC50 (H441 p-ERK; Homo sapiens) of the same compound?
A: 0.21 nM

Q: And the IC50 (AsPC-1 p-ERK; [7])?
A: 0.15 nM

Q: With `COCCn1c(-c2cc(C#CCN3CCC(C#N)(CO)CC3)c[n+]([O-])c2C(C)OC)c2c3cc(ccc31)-c1csc(n1)CC(NC(=O)C1C(C)C1C)C(=O)N1CCCC(N1)C(=O)OCC(C)(C)C2` (atropisomer, axis not shown; (Ra)) [Compound Z42-1, 5-(3-(4-cyano-4-(hydroxymethyl)piperidin-1-yl)prop-1-yn-1-yl)-(Ra)-3-((6^3S,4S,Z)-4-((1r,2R,3S)-2,3-dimethylcyclopropane-1-carboxamido)-1^1-(2-methoxyethyl)-10,10-dimethyl-5,7-dioxo-6^1,6^2,6^3,6^4,6^5,6^6-hexahydro-1^1H-8-oxa-2(4,2)-thiazola-1(5,3)-indola-6(1,3)-pyridazinacycloundecaphane-1^2-yl)-2-((S)-1-methoxyethyl)pyridine 1-oxide] as the compound, how does the IC50 (AsPC-1 cells; [4]) read?
A: 0.33 nM

Q: And the solubility at 24 h ([1]; pH 7.4 medium, 37 °C, 24 h)?
A: 15.6 µg/mL (≈ 16.4 µM)

Q: What about the IC50 (KRAS G12V-cRAF; [5]) of the same compound?
A: 9.9 nM

Q: And the IC50 (NCI-H441 cells; Homo sapiens, 120 h)?
A: 0.65 nM

Q: What about the IC50 (KRAS WT-cRAF; [6]) of the same compound?
A: 18.9 nM

Q: What about the IC50 (H441 p-ERK; Homo sapiens) of the same compound?
A: 1.8 nM

Q: And the IC50 (AsPC-1 p-ERK; [7])?
A: 1.32 nM

Q: For `CCn1c(-c2cc(C#CC(CO)N3CCS(=O)(=O)CC3)cnc2C(C)OC)c2c3cc(ccc31)-c1csc(n1)CC(NC(=O)C1C3COCC31)C(=O)N1CCCC(N1)C(=O)OCC(C)(C)C2` (atropisomer, axis not shown; (Ra)) [Compound Z40, (1R,5S,6r)-N-((6^3S,4S,Z)-(Ra)-1^2-(5-(3-(1,1-dioxidothiomorpholino)-4-hydroxybut-1-yn-1-yl)-(Ra)-2-((S)-1-methoxyethyl)-pyridin-3-yl)-1^1-ethyl-10,10-dimethyl-5,7-dioxo-6^1,6^2,6^3,6^4,6^5,6^6-hexahydro-1^1H-8-oxa-2(4,2)-thiazola-1(5,3)-indola-6(1,3)-pyridazinacycloundecaphane-4-yl)-3-oxabicyclo[3.1.0]hexane-6-carboxamide], which IC50 (AsPC-1 cells; [4]) is on record?
A: 0.43 nM

Q: What about the solubility at 24 h ([1]; pH 7.4 medium, 37 °C, 24 h) of the same compound?
A: 5.1 µg/mL (≈ 5.41 µM)

Q: And the IC50 (KRAS G12V-cRAF; [5])?
A: 7.8 nM

Q: And the IC50 (NCI-H441 cells; Homo sapiens, 120 h)?
A: 0.4 nM

Q: What about the IC50 (KRAS WT-cRAF; [6]) of the same compound?
A: 14.3 nM

Q: What about the IC50 (H441 p-ERK; Homo sapiens) of the same compound?
A: 0.45 nM

Q: And the IC50 (AsPC-1 p-ERK; [7])?
A: 0.38 nM

— EP4775582A1, “MACROCYCLIC COMPOUND AND ANTIBODY-DRUG CONJUGATE THEREOF” (Genfleet Therapeutics (Shanghai) Inc., priority 2023, dated 2025)
